Results from publication PMC10388311, “Innovative Strategy toward Mutant CFTR Rescue in Cystic Fibrosis: Design and Synthesis of Thiadiazole Inhibitors of the E3 Ligase RNF5” (Journal of Medicinal Chemistry, 2023).
“Also recorded” adds a separate entry of the source.

Experiments:
CFBE41o– cells = experiment: Apoptosis assay (Hoechst 33342 / propidium iodide, high-content imaging); assay type: cell-based, human
Description: We performed a preliminary evaluation of the effect of chronic treatment with selected analogues on the proliferation and apoptosis of CFBE41o^– cells (Figure 7). Indeed, RNF5 can modulate cell motility and proliferation by regulating paxillin ubiquitylation and thus its degradation.[53] For the proliferation assay, CFBE41o^– cells stably co-expressing F508del-CFTR and the HS-YFP were treated with test compounds (5 μM), VX-809 (1 μM), or vehicle alone (DMSO) for 48 h. Cell proliferation was then monitored by measuring the area covered by the cells based on the YFP signal. For the apoptosis assay, 24 h after plating, CFBE41o^– cells stably expressing F508del-CFTR were treated with test compounds (5, 20, and 100 μM), VX-809 (1 μM), MG132 (50 μM), or vehicle alone (DMSO) for 24 h. Cell nuclei were then counterstained with Hoechst 33342 and propidium iodide to visualize the total and apoptotic cell count, respectively, and imaged by using an Opera Phenix high-content screening system.
CFBE41o^– cells stably expressing F508del-CFTR and the HS-YFP were plated at a low density (5000 cell/well) on 96-well plates suitable for high-content imaging. […] Cell proliferation was monitored (by exploiting the YFP signal to determine the area covered by cells) for 48 h using the Opera Phenix (PerkinElmer) high-content screening system. […] Data are expressed as means ± SEM, n = 6. […]

[1] = test system: ATG4B-mediated basal autophagy in F508del-CFTR-expressing CFBE41o– cells; experiment: Labeling of autophagic vacuoles with monodansylcadaverine (MDC); assay type: cell-based, human; details: test compounds 5 μM 24 h; torin-1 20 nM and SAR-405 2 μM in the last 3 h
Excerpt: To further support our hypothesis that CFTR rescue following treatment with test compounds was indeed due to RNF5 inhibition, we considered additional biological processes known to be regulated by RNF5 ligase activity. To this aim, we focused our attention on ATG4B, a known regulator of basal autophagy, whose degradation is mediated by RNF5 activity.[54]In vivo ubiquitination experiments previously confirmed that inh-2 inhibits ATG4B degradation, thus increasing the basal level of autophagy.[40] […] We thus evaluated the effect of inh-2 analogues on induction of the autophagy pathway. To this aim, we monitored the formation of autophagic vacuoles in F508del-CFTR-expressing CFBE41o^– cells (Figure 8) by using the autolysosome marker monodansylcadaverine (MDC). MDC accumulates inside autophagosomes. After fusion of autophagosomes with lysosomes, MDC fluorescence increases due to the acidic environment.[55] Therefore, F508del-CFTR-expressing CFBE41o^– cells were treated for 24 h with test compounds (5 μM), VX-809 (1 μM), or DMSO alone (vehicle). In the last 3 h of incubation, we added torin-1 (20 nM), a known autophagy inducer, and SAR-405 (2 μM), a potent inhibitor of the autophagic pathway. The cells were then loaded with MDC and evaluated by high-content confocal imaging to detect signal spots (corresponding to autophagic vacuoles) in each cell.
CFBE41o^– cells stably expressing F508del-CFTR and the HS-YFP were plated (50,000 cells/well) on good-quality clear-bottom 96-well black microplates suitable for high-content imaging. After 24 h, cells were treated with test compounds or DMSO (as the negative control). […] After 24 h, cells were incubated with 50 μM MDC (Sigma-Aldrich) in PBS at 37 °C for 10 min.[62] After incubation, cells were washed three times with PBS and immediately analyzed. High-content imaging and data analysis were performed using the Opera Phenix (PerkinElmer) high-content screening system. Wells were imaged in confocal mode using a 40× water-immersion objective. The MDC signal was laser-excited at 405 nm, and the emission wavelengths were collected between 435 and 550 nm. Data analysis of MDC spot number was performed using the Harmony software (ver 4.5) of the Opera Phenix high-content system. Data are expressed as means ± SEM, n = 3 independent experiments. Statistical significance was tested by parametric ANOVA followed by the Dunnet multiple comparisons test (all groups against the control group).

Row | SMILES | effect on cell proliferation and apoptosis (tolerability) (CFBE41o– cells) | number of autophagic vacuoles (MDC signal spots) [1]
1 | COc1cccc(Cn2c(C)ns/c2=N\C(=N\c2ccccc2)c2ccccc2)c1 [Compound 16, (E)-N-((Z)-4-(3-Methoxybenzyl)-3-methyl-1,2,4-thiadiazol-5(4H)-ylidene)-N′-phenylbenzimidamide] | good tolerability and no toxic side effects | significantly increased; also recorded: strong activation of basal autophagy
2 | Cc1ns/c(=N\C(=N\c2ccccc2)c2ccccc2)n1Cc1ccccc1 [inh-2, reference compound] | – | significantly increased
